Data as given in ChEMBL document CHEMBL5543130, “Design, Synthesis, and In Vivo Evaluation of Isosteviol Derivatives as New SIRT3 Activators with Highly Potent Cardioprotective Effects” (J Med Chem, 2024).
The source made the active and inactive calls. The rule behind the calls is not given here.

Columns and labels:
[1] = Water solubility of the compound measured for 24 hrs by HPLC analysis; format: physicochemical
[2] = Toxicity in Tg(cmlc2: GFP) Zebrafish assessed as mortality at 450 uM measured at 72 hrs post fertilization; parameters: species or system Danio rerio; settings: in vivo
Mus musculus [3] = assay: Cardioprotective activity against doxorubicin-induced C57BL/6 mouse cardiomyopathy model assessed as increase in heart weight to tibia length ratio at 2.5 mg/kg, ip administered for 7 days by Echocardiography analysis; format: functional; settings: time 7 day
Mus musculus [4] = assay: Cardioprotective activity against doxorubicin-induced C57BL/6 mouse cardiomyopathy model assessed as increase in ejection fraction at 2.5 mg/kg, ip administered for 7 days by Echocardiography analysis; format: functional; settings: time 7 day
Mus musculus [5] = assay: Cardioprotective activity against doxorubicin-induced C57BL/6 mouse cardiomyopathy model assessed as increase in fractional shortening at 2.5 mg/kg, ip administered for 7 days by Echocardiography analysis; format: functional; settings: time 7 day
Mus musculus [6] = assay: Cardioprotective activity against doxorubicin-induced C57BL/6 mouse cardiomyopathy model assessed as increase in cardiac output at 2.5 mg/kg, ip administered for 7 days by Echocardiography analysis; format: functional; settings: time 7 day
Danio rerio [7] = assay: Cardioprotective activity against doxorubicin-induced Zebrafish cardiomyopathy model assessed as survival rate at 40 uM fertilized for 24 hrs followed by compound administration for 72 hrs and measured at 96 hrs post fertilization by inverted fluorescence microscopic analysis; format: functional
Danio rerio [8] = assay: Cardioprotective activity against doxorubicin-induced Zebrafish cardiomyopathy model assessed as survival rate at 60 uM fertilized for 24 hrs followed by compound administration for 72 hrs and measured at 96 hrs post fertilization by inverted fluorescence microscopic analysis; format: functional
Danio rerio [9] = assay: Cardioprotective activity against doxorubicin-induced Tg(cmlc2: GFP) Zebrafish assessed as […] at 60 uM measured at 72 hrs post fertilization; format: functional, organism-based
Danio rerio [10] = species on record: Danio rerio; assay: Cardioprotective activity against doxorubicin-induced Tg(cmlc2: GFP) Zebrafish assessed as restoration of normal heart structure at 60 uM measured at 72 hrs post fertilization; format: functional, organism-based

Row | SMILES | solubility at 24 h [1] | Activity [2] | Ratio (Mus musculus [3]) | Activity (Mus musculus [4]) | Activity (Mus musculus [5]) | Activity (Mus musculus [6]) | survival at 40 µM (Danio rerio [7]) | survival at 60 µM (Danio rerio [8]) | Activity (Danio rerio [9]) | Activity (Danio rerio [10])
1 | C[C@@]12CC[C@@H]3[C@@](CC[C@H]4[C@@]3(C)CCC[C@@]4(C)C(=O)N3CCN(C(=O)c4ccccc4C(=O)[O-])CC3)(CC1=O)C2.[Na+] | 54 mg/mL | Non-Toxic | 6.3 mg/mm | 59.8% | 31.3% | 10% |  |  |  | 
2 | C[C@@H]1CC(=O)NN=C1c1ccc(NN=C(C#N)C#N)cc1 [LEVOSIMENDAN] |  |  |  |  |  |  | 75% | 84% | Active | Active
